How the values were obtained:
[1] = test system: IL-10 release from U937 cells; test: IL-10 release from U937 cells (ELISA); format: cell-based, human; conditions: for stimulation of IL-10 in the presence of a type IV selective PDE inhibitor: with vs without type IV selective PDE inhibitor (rolipram)
Description: U 937 cells were grown in RPMI (PAA Laboratories) medium with 10% fetal calf serum added (PAA Laboratories). 2×10^6 cells per flask were treated with prostaglandin E2 at 10^−6 Molar or with Rolipram (4×10^−6) for 24 hours. Medium was removed at […] and analysed by ELISA. A capture antibody (Pharmingen) was coated onto 96 well plates and culture medium was added each well. A standard curve was created with recombinant IL-10 protein. After incubation and washing, a biotin labelled monoclonal antibody (Pharmingen) was added and following incubation and washing, peroxidase labelled streptavidin was added. After washing a tetramethyl benzidine substrate was added and colour developed in proportion to IL-10 in the original sample/standard. Colour was read using a plate photometer (Labsystems, Multiskan). Mean concentrations (N=3) in controls with no lipopolysaccharide (LPS) were 38.2 pg/ml and in the presence of LPS (100 nM) they were 43.9 […].
The effect of PGE1, PGE2, 19 hydroxy PGE1 and 19 hydroxy PGE2 on the stimulation of IL-10 in the presence and absence of rolipram was investigated as described above in Example 2. IL-10 levels were measured using an ELISA assay (R&D Ltd, Oxford). Measurements were taken in accordance with the manufacturer's instructions.

[2] = test system: phosphodiesterase IV-b mRNA; test: Phosphodiesterase IV b mRNA in U937 cells (Taqman); format: cell-based, human; conditions: four hours of incubation; PGE 1×10^-6, 19-hydroxy PGE2 5×10^-6; without inhibitor
Description: After the incubation (20 hours), cells were pelleted and the mRNA was extracted with Tri-reagent (Sigma, Poole, UK). Total RNA was obtained by addition of chloroform and subsequent isopropanol precipitation. RNA was reverse transcribed with reverse transcriptase (Applied Biosystems) and random hexamers (Applied Biosystems). Probes and primers for IL-10 and IL-12 (p35) were designed using Primer Express (Applied Biosystems) and were as follows:
Template was amplified in a Taqman 7700 machine for 40 cycles using FAM/TAMRA dyes on the probe. The Applied Biosystems kit was used to amplify and detect ribosomal (18S)RNA (using VIC/TAMRA dyes) as an internal control in the same reaction tube. After 40 cycles the Ct (related to cycle number at which signal appears) for the FAM and the 18S (VIC) were recorded and […] relative quantitation was achieved using the formula 2^−ΔΔct where Δ refers to the difference between the FAM and VIC signal related to an standard comparator included in each run.
The mRNA for phosphodiesterase IV-b was measured as described in Example 2 above mRNA was extracted after four hours of incubation. The concentration of the PGE was 1×10^−6 and that of the 19-hydroxy PGE2 was 5×10^−6. The following primers and Taqman probe were used for quantitation of PDE IV b mRNA.

[3] = in vivo; cited from earlier work
type IV PDE = conditions: cited from earlier work; for IC50: type IV PDE inhibitor

Compound	stimulation of IL-10 in the presence of a type IV selective PDE inhibitor [1]	PDE activity (phosphodiesterase IV b mRNA) after prostaglandin application [2]	IC50 (type IV PDE)	further results
19-hydroxy PGE2	increased strikingly	increase	–	concentration necessary to achieve similar effects to PGE ([1]; compared with PGE, Figures and Examples): higher concentration
CCCCC(C)(O)CC=C[C@H]1[C@H](O)CC(=O)[C@@H]1CCCCCCC(=O)OC (mixture of isomers) [misoprostol, (±) methyl 11α, 16-dihydroxy-16-methyl-9-oxoprost-13-enoate]	–	–	–	hypotension [3]: does not cause hypotension
CCCCC[C@H](O)/C=C/[C@H]1[C@H](O)CC(=O)[C@@H]1C/C=C\CCCC(=O)O [PGE, prostaglandin E2]	increased strikingly	increase	–	–
CCCCOc1cc(CC2CNC(=O)N2)ccc1OC (stereo not drawn) [Ro-20-1724, 4-[3-butoxy-4-methoxybenzyl]-2-imidazolidinone]	–	–	2000 nM	–
COc1ccc(C2CNC(=O)C2)cc1OC1CCCC1 (stereo not drawn) [rolipram, 4-[3-cyclopentyloxy 4-methoxyphenyl]-2-pyrrolidinone]	–	–	800 nM	–
Cn1c(=O)c2[nH]cnc2n(C)c1=O [theophylline]	–	–	–	times less effective than rolipram (type IV PDE; non-selective inhibitor compared with rolipram): 30 times

— patent publication US20040214839A1, “Therapeutic methods” (priority 2001, published 2004)
